Patent publication EP2033515A1, “Method for improved utilisation of the production potential of transgenic plants” (Bayer CropScience AG, priority 2007, dated 2009)

Assay: logP determination by reversed-phase HPLC (EEC Directive 79/831 Annex V.A8)
Text: Die Messung der logP Werte erfolgte gemäß EEC Directive 79/831 Annex V.A8 durch HPLC (High Performance Liquid Chromatography) an reverser Phase Säulen (C 18), mit nachfolgenden Methoden: • ^[a] Die Bestimmung erfolgt bei pH 2.3 mit 0,1% wässriger Phosphorsäure und Acetonitril als Eluenten (linearer Gradient von 10 bis 95% Acetonitril). • ^[b] Die Bestimmung erfolgt mit LC-MS bei pH 2,7 mit 0,1 % wässriger Ameisensäure und Acetonitril als Eluenten (linearer Gradient von 10% bis 95% Acetonitril). • ^[c] Die Bestimmung erfolgt mit LC-MS bei pH 7,8 mit 0,001 M wässriger Ammoniumhydrogencarbonat-Lösung und Acetonitril als Eluenten (linearer Gradient von 10 % bis 95 % Acetonitril).
Die Eichung erfolgt mit unverzweigten Alkan-2-onen (mit 3 bis 16 Kohlenstoffatomen), deren logP-Werte bekannt sind (Bestimmung der logP-Werte anhand der Retentionszeiten durch lineare Interpolation zwischen zwei aufeinander folgenden Alkanonen). Die lambda-maX-Werte wurden an Hand der UV-Spektren von 200 bis 400 nm in den Absorptionsmaxima ermittelt.

[1] = method [a]: pH 2.3, 0,1% aqueous phosphoric acid and acetonitrile, linear gradient 10 to 95% acetonitrile
[2] = aqueous ammonium hydrogen carbonate/acetonitrile, pH 7.8
[3] = method [c]: LC-MS, pH 7,8, 0,001 M aqueous ammonium hydrogen carbonate and acetonitrile, linear gradient 10 % to 95 % acetonitrile
[4] = 0.1% aqueous phosphoric acid/acetonitrile, pH 2.3

SMILES | log p [1] | log p [3] | also measured
Cc1c(NC(=O)c2cccc(I)c2C(=O)N[C@@H](C)C[S+](C)[O-])ccc(C(F)(F)C(F)(F)F)c1F (stereo partly shown) [compound 31] | 2,5^[a] | – | –
Cc1cc(C(F)(C(F)(F)F)C(F)(F)F)ccc1NC(=O)c1cccc(I)c1C(=O)N[C@@H](C)CS(C)(=O)=O [compound 1] | 3,18 | – | chromatographic logP [2]: 3.2
Cc1c(NC(=O)c2cccc(I)c2C(=O)N[C@@H](C)CS(C)(=O)=O)ccc(C(F)(C(F)(F)F)C(F)(F)F)c1F [compound 27] | 3,27^[a] | – | –
CSC[C@H](C)NC(=O)c1c(I)cccc1C(=O)Nc1ccc(C(F)(F)C(F)(F)F)c(Cl)c1C [compound 26] | 4,2^[a] | – | –
CSC[C@H](C)NC(=O)c1c(I)cccc1C(=O)Nc1ccc(C(C(F)F)C(F)(F)F)cc1Br (stereo partly shown) [compound 37] | 3,51 | 3,54 | –
CCS(=O)(=O)C[C@H](C)NC(=O)c1c(I)cccc1C(=O)Nc1ccc(C(F)(C(F)(F)F)C(F)(F)F)c(F)c1C [compound 21] | 3,47^[a] | – | –
CCSC[C@H](C)NC(=O)c1c(I)cccc1C(=O)Nc1ccc(C(F)(C(F)(F)F)C(F)(F)F)c(F)c1C [compound 19] | 4,71^[a] | – | –
CSC[C@H](C)NC(=O)c1c(I)cccc1C(=O)Nc1ccc(C(F)(F)C(F)(F)F)c(F)c1C [compound 23] | 4,04^[a] | – | –
CCSC[C@H](C)NC(=O)c1c(I)cccc1C(=O)Nc1ccc(C(F)(C(F)(F)F)C(F)(F)Br)cc1C (stereo partly shown) [compound 32] | 4,68 | – | –
CCSC[C@H](C)NC(=O)c1c(I)cccc1C(=O)Nc1ccc(C(F)(C(F)F)C(F)(F)F)cc1C (stereo partly shown) [compound 33] | 3,96^[a] 3,96^[c] | 3,96^[a] 3,96^[c] | –
CCSC[C@H](C)NC(=O)c1c(I)cccc1C(=O)Nc1ccc(C(C(F)F)C(F)(F)F)cc1C (stereo partly shown) [compound 35] | 3,63 | 3,62 | –
CCS(=O)(=O)C[C@H](C)NC(=O)c1c(Br)cccc1C(=O)Nc1ccc(C(F)(F)C(F)(F)F)c(Cl)c1C [compound 22] | 3,19^[a] | – | –
CSC[C@H](C)NC(=O)c1c(I)cccc1C(=O)Nc1ccc(C(F)(C(F)(F)F)C(F)(F)F)c(F)c1C [compound 25] | 4,41^[a] | – | –
CSC[C@H](C)NC(=O)c1c(Cl)cccc1C(=O)Nc1ccc(C(F)(F)C(F)(F)F)c(F)c1C [compound 11] | – | – | log p (method [b]: LC-MS, pH 2,7, 0,1 % aqueous formic acid and acetonitrile, linear gradient 10% to 95% acetonitrile): 3,94^[b]
Cc1c(NC(=O)c2cccc(I)c2C(=O)N[C@@H](C)C[S+](C)[O-])ccc(C(F)(C(F)(F)F)C(F)(F)F)c1F (stereo partly shown) [compound 8] | 2,78^[a] | – | –
Cc1c(NC(=O)c2cccc(I)c2C(=O)N[C@@H](C)CS(C)(=O)=O)ccc(C(F)(F)C(F)(F)F)c1F [compound 24] | 2,97^[a] | – | –
CCS(=O)(=O)C[C@H](C)NC(=O)c1c(Cl)cccc1C(=O)Nc1ccc(C(F)(F)C(F)(F)F)c(F)c1C [compound 14] | 3,01^[a] | – | –
CC[S+]([O-])C[C@H](C)NC(=O)c1c(I)cccc1C(=O)Nc1ccc(C(F)(C(F)(F)F)C(F)(F)F)c(F)c1C (stereo partly shown) [compound 9] | 2,97^[a] | – | –
Cc1c(NC(=O)c2cccc(Cl)c2C(=O)N[C@@H](C)CS(C)(=O)=O)ccc(C(F)(F)C(F)(F)F)c1F [compound 13] | 2,82^[a] | – | –
Cc1c(NC(=O)c2cccc(Br)c2C(=O)N[C@@H](C)CS(C)(=O)=O)ccc(C(F)(F)C(F)(F)F)c1F [compound 16] | 2,86^[a] | – | –
CSC[C@H](C)NC(=O)c1c(Br)cccc1C(=O)Nc1ccc(C(F)(C(F)(F)F)C(F)(F)F)c(F)c1C [compound 17] | 4,31^[a] | – | –
CSC[C@H](C)NC(=O)c1c(Br)cccc1C(=O)Nc1ccc(C(F)(F)C(F)(F)F)c(F)c1C [compound 15] | 3,93^[a] | – | –
CCS(=O)(=O)C[C@H](C)NC(=O)c1c(Cl)cccc1C(=O)Nc1ccc(C(F)(F)C(F)(F)F)c(Cl)c1C [compound 12] | 3,14^[a] | – | –
CSC[C@H](C)NC(=O)c1c(Br)cccc1C(=O)Nc1ccc(C(F)(C(F)F)C(F)(F)F)cc1Br (stereo partly shown) [compound 29] | 3,81^[a] | – | –
CCS(=O)(=O)C[C@H](C)NC(=O)c1c(Br)cccc1C(=O)Nc1ccc(C(F)(C(F)F)C(F)(F)F)cc1Br (stereo partly shown) [compound 30] | – | – | chromatographic logP [4]: 3.06
CCSC[C@H](C)NC(=O)c1c(I)cccc1C(=O)Nc1ccc(C(F)(C(F)F)C(F)(F)F)cc1Cl (stereo partly shown) [compound 34] | – | – | chromatographic logP [4]: 4.2; chromatographic logP [2]: 4.2

Further lines, with some results ahead:

log p [1] | log p [3] | SMILES | also measured
2,58 | 2,51 | Cc1cc(C(C(F)(F)F)C(F)(F)F)c(F)cc1NC(=O)c1cccc(Cl)c1C(=O)N[C@@H](C)C[S+](C)[O-] (stereo partly shown) [compound 52] | –
2,58 | 2,51 | Cc1cc(C(C(F)(F)F)C(F)(F)F)c(F)cc1NC(=O)c1cccc(Br)c1C(=O)N[C@@H](C)C[S+](C)[O-] (stereo partly shown) [compound 53] | –
2,71 | 2,76 | C[C@@H](CS(C)(=O)=O)NC(=O)c1c(I)cccc1C(=O)Nc1ccc(C(C(F)F)C(F)(F)F)cc1Br (stereo partly shown) [compound 43] | –
2,61 | 2,64 | Cc1cc(C(F)(C(F)F)C(F)(F)F)ccc1NC(=O)c1cccc(Cl)c1C(=O)N[C@@H](C)CS(C)(=O)=O (stereo partly shown) [compound 49] | –
– | 2,41 | Cc1c(NC(=O)c2cccc(Cl)c2C(=O)N[C@@H](C)C[S+](C)[O-])ccc(C(C(F)(F)F)C(F)(F)F)c1F (stereo partly shown) [compound 51] | chromatographic logP (pH 2.3): 2.5
3,76 | 3,79 | CCSC[C@H](C)NC(=O)c1c(I)cccc1C(=O)Nc1ccc(C(C(F)F)C(F)(F)F)cc1Cl (stereo partly shown) [compound 38] | –
2,65 | 2,69 | CCS(=O)(=O)C[C@H](C)NC(=O)c1c(I)cccc1C(=O)Nc1ccc(C(C(F)F)C(F)(F)F)cc1F (stereo partly shown) [compound 48] | –
– | 2,54 | C[C@@H](CS(C)(=O)=O)NC(=O)c1c(I)cccc1C(=O)Nc1ccc(C(C(F)F)C(F)(F)F)cc1F (stereo partly shown) [compound 45] | chromatographic logP (pH 2.3): 2.5
2,87 | 2,92 | CCS(=O)(=O)C[C@H](C)NC(=O)c1c(I)cccc1C(=O)Nc1ccc(C(C(F)F)C(F)(F)F)cc1Br (stereo partly shown) [compound 46] | –
2,72 | 2,76 | C[C@@H](CS(C)(=O)=O)NC(=O)c1c(I)cccc1C(=O)Nc1ccc(C(F)(C(F)F)C(F)(F)F)cc1F (stereo partly shown) [compound 44] | –
2,89 | 2,94 | CCS(=O)(=O)C[C@H](C)NC(=O)c1c(I)cccc1C(=O)Nc1ccc(C(F)(C(F)F)C(F)(F)F)cc1F (stereo partly shown) [compound 47] | –
3,57^[a] 3,57^[c] | 3,57^[a] 3,57^[c] | CCSC[C@H](C)NC(=O)c1c(I)cccc1C(=O)Nc1ccc(C(C(F)F)C(F)(F)F)cc1F (stereo partly shown) [compound 40] | –
3,78 | – | CCSC[C@H](C)NC(=O)c1c(I)cccc1C(=O)Nc1ccc(C(C(F)F)C(F)(F)F)cc1Br (stereo partly shown) [compound 39] | chromatographic logP [2]: 3.8
2,69 | 2,72 | C[C@@H](CS(C)(=O)=O)NC(=O)c1c(I)cccc1C(=O)Nc1ccc(C(C(F)F)C(F)(F)F)cc1Cl (stereo partly shown) [compound 42] | –
3,12 | 3,18 | CCS(=O)(=O)C[C@H](C)NC(=O)c1c(I)cccc1C(=O)Nc1ccc(C(F)(C(F)F)C(F)(F)F)cc1Cl (stereo partly shown) [compound 41] | –
